Source: ChEMBL document CHEMBL3763101, “Gibbilimbol analogues as antiparasitic agents--Synthesis and biological activity against Trypanosoma cruzi and Leishmania (L.) infantum” (Bioorg Med Chem Lett, 2016)

Experiments:
[1] = Cytotoxicity against mouse NCTC-929 cells assessed as cell viability after 48 hrs by MTT assay; format: cell-based
Leishmania infantum [2] = assay: Antiparasitic activity against amastigote stage of Leishmania infantum infected in BALB/c mouse peritoneal macrophages assessed as reduction of parasite burden after 120 hrs by Giemsa staining-based light microscopic analysis; format: functional, organism-based
[3] = Selectivity index, ratio of CC50 for mouse […] cells to IC50 for Leishmania infantum promastigotes; format: functional, NCTC-929
Trypanosoma cruzi [4] = assay: Antiparasitic activity against trypomastigote stage of Trypanosoma cruzi Y assessed as parasite viability after 24 hrs by MTT assay; format: functional, organism-based
[5] = Selectivity index, ratio of CC50 for mouse […] cells to IC50 for Trypanosoma cruzi Y trypomastigotes; format: functional
Trypanosoma cruzi [6] = assay: Antiparasitic activity against amastigote stage of Trypanosoma cruzi Y; format: functional, organism-based
Leishmania infantum [7] = assay: Antiparasitic activity against promastigote stage of Leishmania infantum assessed as parasite viability after 24 hrs by MTT assay; format: functional, organism-based
[8] = Selectivity index, ratio of CC50 for mouse […] cells to IC50 for Trypanosoma cruzi Y amastigotes; format: functional
[9] = Selectivity index, ratio of CC50 for mouse […] cells to IC50 for Leishmania infantum amastigotes; format: functional
Leishmania infantum [10] = assay: Potency index, ratio of gibbilimbol B IC50 to compound IC50 for amastigote stage of Leishmania infantum infected in BALB/c mouse peritoneal macrophages; format: functional
[11] = Trypanosoma cruzi, Y, 24 h, read-out: IC50
[12] = Leishmania infantum, 24 h, read-out: IC50
[13] = Trypanosoma cruzi, Y, read-out: IC50
[14] = Leishmania infantum, 120 h, read-out: IC50

## CCCCCCCCOC(=O)c1ccc(O)cc1
[1]
  CC50 at 48 h: 130 µM
Leishmania infantum [2]
  IC50: Not Active
[3]
  Ratio CC50/IC50: 1.1
Trypanosoma cruzi [4]; [11]
  IC50: 4.5 µM
[5]
  Ratio CC50/IC50: 29
Trypanosoma cruzi [6]
  IC50: Not Active
Leishmania infantum [7]; [12]
  IC50: 123 µM

## CCCCCCCC/N=C/c1ccc(O)cc1
[1]
  CC50 at 48 h: 99.2 µM
Leishmania infantum [2]
  IC50: Not Active
[3]
  Ratio CC50/IC50: 5
Trypanosoma cruzi [4]
  IC50: Not Active
Trypanosoma cruzi [6]
  IC50: Not Active
Leishmania infantum [7]; [12]
  IC50: 19.9 µM

## CCCCCCCC(O)/C=C/c1ccc(O)cc1 (centres undefined)
[1]
  CC50 at 48 h: 49.5 µM
Leishmania infantum [2]
  IC50: Not Active
[3]
  Ratio CC50/IC50: 0.4
Trypanosoma cruzi [4]; [11]
  IC50: 6.1 µM
[5]
  Ratio CC50/IC50: 8.1
Trypanosoma cruzi [6]
  IC50: Not Active
Leishmania infantum [7]; [12]
  IC50: 125 µM

## CCCCCCCCNC(=O)c1ccc(O)cc1
[1]
  CC50 at 48 h: 45.4 µM
Leishmania infantum [2]
  IC50: Not Active
[3]
  Ratio CC50/IC50: 1
Trypanosoma cruzi [4]; [11]
  IC50: 26.5 µM
[5]
  Ratio CC50/IC50: 1.7
Trypanosoma cruzi [6]
  IC50: Not Active
Leishmania infantum [7]; [12]
  IC50: 45.1 µM

## CCCCCCCC(=O)/C=C/c1ccc(O)cc1
[1]
  CC50 at 48 h: 82.8 µM
[8]
  Ratio CC50/IC50: 3.7
Leishmania infantum [2]
  IC50: Not Active
[3]
  Ratio CC50/IC50: 1
Trypanosoma cruzi [4]; [11]
  IC50: 11.8 µM
[5]
  Ratio CC50/IC50: 7
Trypanosoma cruzi [6]; [13]
  IC50: 22.5 µM
Leishmania infantum [7]; [12]
  IC50: 82.7 µM

## CCCCCCCCNCc1ccc(O)cc1
[1]
  CC50 at 48 h: 23.5 µM
[8]
  Ratio CC50/IC50: 4.3
Leishmania infantum [2]; [14]
  IC50: 1.8 µM
[3]
  Ratio CC50/IC50: 0.8
[9]
  Ratio CC50/IC50: 13.1
Trypanosoma cruzi [4]; [11]
  IC50: 17 µM
[5]
  Ratio CC50/IC50: 1.4
Leishmania infantum [10]
  Ratio IC50: 52
Trypanosoma cruzi [6]; [13]
  IC50: 5.5 µM
Leishmania infantum [7]; [12]
  IC50: 28.6 µM

## CCCCNCc1ccc(O)cc1
[1]
  CC50 at 48 h: > 300 µM
Leishmania infantum [2]
  IC50: Not Active
[3]
  Ratio CC50/IC50: >9.5
Trypanosoma cruzi [4]
  IC50: Not Active
Trypanosoma cruzi [6]
  IC50: Not Active
Leishmania infantum [7]; [12]
  IC50: 31.6 µM

## O=C(Cn1ccnc1[N+](=O)[O-])NCc1ccccc1 [BENZNIDAZOLE]
[1]
  CC50 at 48 h: 270 µM
Trypanosoma cruzi [6]; [13]
  IC50: 230 µM

## CCCCOC(=O)c1ccc(O)cc1 [BUTYLPARABEN]
[1]
  CC50 at 48 h: 168 µM
[8]
  Ratio CC50/IC50: 6.4
Leishmania infantum [2]
  IC50: Not Active
Trypanosoma cruzi [4]
  IC50: Not Active
Trypanosoma cruzi [6]; [13]
  IC50: 26.4 µM
Leishmania infantum [7]
  IC50: Not Active

## CCCCCCCCCCCCCCCCOP(=O)([O-])OCC[N+](C)(C)C [MILTEFOSINE]
[1]
  CC50 at 48 h: 241 µM
Leishmania infantum [2]; [14]
  IC50: 16.4 µM
[3]
  Ratio CC50/IC50: 14.5
[9]
  Ratio CC50/IC50: 14.7
Leishmania infantum [7]; [12]
  IC50: 16.7 µM
